Data taken from PubChem BioAssay (NCI).
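How tested: cells in 96-well plates exposed to compound for 48 hours at five concentrations. At the GI50, growth is halved. TGI denotes the concentration required for complete inhibition of growth.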

What was measured:
Test in all cases: NCI anticancer screen, dose series, 48 h
SF-268 CNS = test system: SF-268 CNS
IGROV1 ovarian = test system: IGROV1 ovarian
HOP-92 NSCLC = test system: HOP-92 NSCLC
K-562 leukemia = test system: K-562 leukemia
BT-549 breast = test system: BT-549 breast
T-47D breast = test system: T-47D breast
NCI/ADR-RES ovarian = test system: NCI/ADR-RES ovarian
NCI-H23 lung = test system: NCI-H23 lung
RXF 393 renal = test system: RXF 393 renal
SW-620 colon = test system: SW-620 colon
OVCAR-3 ovarian = test system: OVCAR-3 ovarian
HS 578T breast = test system: HS 578T breast
MOLT-4 leukemia = test system: MOLT-4 leukemia
DU-145 prostate = test system: DU-145 prostate
MCF7 breast = test system: MCF7 breast
HOP-62 NSCLC = test system: HOP-62 NSCLC
HCC-2998 colon = test system: HCC-2998 colon
PC-3 prostate = test system: PC-3 prostate
NCI-H522 lung = test system: NCI-H522 lung
MDA-MB-435 = test system: MDA-MB-435
A498 renal = test system: A498 renal
COLO 205 colon = test system: COLO 205 colon
SNB-19 CNS = test system: SNB-19 CNS
MALME-3M melanoma = test system: MALME-3M melanoma
786-0 renal = test system: 786-0 renal
UACC-62 melanoma = test system: UACC-62 melanoma
CCRF-CEM leukemia = test system: CCRF-CEM leukemia
SNB-75 CNS = test system: SNB-75 CNS
UO-31 renal = test system: UO-31 renal
SN12C renal = test system: SN12C renal
SF-295 CNS = test system: SF-295 CNS
UACC-257 melanoma = test system: UACC-257 melanoma
SK-MEL-2 melanoma = test system: SK-MEL-2 melanoma
OVCAR-5 ovarian = test system: OVCAR-5 ovarian
HCT-15 colon = test system: HCT-15 colon
HL-60(TB) leukemia = test system: HL-60(TB) leukemia
A549 NSCLC = test system: A549 NSCLC
M14 melanoma = test system: M14 melanoma
NCI-H460 lung = test system: NCI-H460 lung
ACHN renal = test system: ACHN renal
SK-MEL-5 melanoma = test system: SK-MEL-5 melanoma
LOX IMVI melanoma = test system: LOX IMVI melanoma
SF-539 CNS = test system: SF-539 CNS
CAKI-1 renal = test system: CAKI-1 renal
OVCAR-8 ovarian = test system: OVCAR-8 ovarian
HT29 colon = test system: HT29 colon
NCI-H226 lung = test system: NCI-H226 lung
MDA-MB-231 breast = test system: MDA-MB-231 breast
OVCAR-4 ovarian = test system: OVCAR-4 ovarian
SK-OV-3 ovarian = test system: SK-OV-3 ovarian
SR leukemia = test system: SR leukemia
KM12 colon = test system: KM12 colon
TK-10 renal = test system: TK-10 renal
HCT-116 colon = test system: HCT-116 colon
RPMI-8226 leukemia = test system: RPMI-8226 leukemia
SK-MEL-28 melanoma = test system: SK-MEL-28 melanoma
U251 CNS = test system: U251 CNS

Q: `C[C@H](O)CNc1cc(-c2[nH]c3cccnc3c2-c2ccc(F)cc2)ccn1` was tested. Which GI50 (SF-268 CNS) did it give?
A: 17.3 µM

Q: And the TGI (SF-268 CNS)?
A: > 25 µM

Q: And the GI50 (IGROV1 ovarian)?
A: 6.35 µM

Q: What about the TGI (IGROV1 ovarian) of the same compound?
A: > 21.8 µM

Q: What about the GI50 (HOP-92 NSCLC) of the same compound?
A: 1.59 µM

Q: What about the TGI (HOP-92 NSCLC) of the same compound?
A: > 22.9 µM

Q: What about the GI50 (K-562 leukemia) of the same compound?
A: > 23 µM

Q: What about the TGI (K-562 leukemia) of the same compound?
A: > 25 µM

Q: And the GI50 (BT-549 breast)?
A: 17.8 µM

Q: And the TGI (BT-549 breast)?
A: > 25 µM

Q: And the GI50 (T-47D breast)?
A: 8.88 µM

Q: And the TGI (T-47D breast)?
A: > 25 µM

Q: And the GI50 (NCI/ADR-RES ovarian)?
A: > 25 µM

Q: What about the TGI (NCI/ADR-RES ovarian) of the same compound?
A: > 25 µM

Q: What about the GI50 (NCI-H23 lung) of the same compound?
A: > 25 µM

Q: What about the TGI (NCI-H23 lung) of the same compound?
A: > 25 µM

Q: What about the GI50 (RXF 393 renal) of the same compound?
A: 14.6 µM

Q: What about the TGI (RXF 393 renal) of the same compound?
A: > 25 µM

Q: What about the GI50 (SW-620 colon) of the same compound?
A: > 25 µM

Q: And the TGI (SW-620 colon)?
A: > 25 µM

Q: What about the GI50 (OVCAR-3 ovarian) of the same compound?
A: 22.2 µM

Q: What about the TGI (OVCAR-3 ovarian) of the same compound?
A: > 25 µM

Q: What about the GI50 (HS 578T breast) of the same compound?
A: 15.8 µM

Q: What about the TGI (HS 578T breast) of the same compound?
A: > 25 µM

Q: And the GI50 (MOLT-4 leukemia)?
A: > 25 µM

Q: And the TGI (MOLT-4 leukemia)?
A: > 25 µM

Q: And the GI50 (DU-145 prostate)?
A: 18.7 µM

Q: What about the TGI (DU-145 prostate) of the same compound?
A: > 25 µM

Q: What about the GI50 (MCF7 breast) of the same compound?
A: 6.37 µM

Q: What about the TGI (MCF7 breast) of the same compound?
A: > 25 µM

Q: What about the GI50 (HOP-62 NSCLC) of the same compound?
A: 20.1 µM

Q: What about the TGI (HOP-62 NSCLC) of the same compound?
A: > 25 µM

Q: And the GI50 (HCC-2998 colon)?
A: > 23.3 µM

Q: What about the TGI (HCC-2998 colon) of the same compound?
A: > 25 µM

Q: What about the GI50 (PC-3 prostate) of the same compound?
A: > 23 µM

Q: What about the TGI (PC-3 prostate) of the same compound?
A: > 25 µM

Q: And the GI50 (NCI-H522 lung)?
A: > 25 µM

Q: And the TGI (NCI-H522 lung)?
A: > 25 µM

Q: What about the GI50 (MDA-MB-435) of the same compound?
A: > 23 µM

Q: And the TGI (MDA-MB-435)?
A: > 25 µM

Q: What about the GI50 (A498 renal) of the same compound?
A: 4.19 µM

Q: What about the TGI (A498 renal) of the same compound?
A: > 25 µM

Q: What about the GI50 (COLO 205 colon) of the same compound?
A: 13.5 µM

Q: What about the TGI (COLO 205 colon) of the same compound?
A: > 25 µM

Q: And the GI50 (SNB-19 CNS)?
A: 18.5 µM

Q: And the TGI (SNB-19 CNS)?
A: > 25 µM

Q: What about the GI50 (MALME-3M melanoma) of the same compound?
A: > 14.4 µM

Q: And the TGI (MALME-3M melanoma)?
A: > 25 µM

Q: And the GI50 (786-0 renal)?
A: 16.2 µM

Q: And the TGI (786-0 renal)?
A: > 25 µM

Q: What about the GI50 (UACC-62 melanoma) of the same compound?
A: 12.3 µM

Q: What about the TGI (UACC-62 melanoma) of the same compound?
A: > 25 µM

Q: What about the GI50 (CCRF-CEM leukemia) of the same compound?
A: 20.1 µM

Q: And the TGI (CCRF-CEM leukemia)?
A: > 25 µM

Q: And the GI50 (SNB-75 CNS)?
A: 11.8 µM

Q: And the TGI (SNB-75 CNS)?
A: > 25 µM

Q: What about the GI50 (UO-31 renal) of the same compound?
A: 4.08 µM

Q: What about the TGI (UO-31 renal) of the same compound?
A: > 25 µM

Q: What about the GI50 (SN12C renal) of the same compound?
A: 11.9 µM

Q: What about the TGI (SN12C renal) of the same compound?
A: > 25 µM

Q: And the GI50 (SF-295 CNS)?
A: > 12.4 µM

Q: And the TGI (SF-295 CNS)?
A: > 25 µM

Q: What about the GI50 (UACC-257 melanoma) of the same compound?
A: > 25 µM

Q: And the TGI (UACC-257 melanoma)?
A: > 25 µM

Q: What about the GI50 (SK-MEL-2 melanoma) of the same compound?
A: > 25 µM

Q: And the TGI (SK-MEL-2 melanoma)?
A: > 25 µM

Q: What about the GI50 (OVCAR-5 ovarian) of the same compound?
A: > 25 µM

Q: What about the TGI (OVCAR-5 ovarian) of the same compound?
A: > 25 µM

Q: What about the GI50 (HCT-15 colon) of the same compound?
A: 10.3 µM

Q: And the TGI (HCT-15 colon)?
A: > 25 µM

Q: And the GI50 (HL-60(TB) leukemia)?
A: > 25 µM

Q: And the TGI (HL-60(TB) leukemia)?
A: > 25 µM

Q: And the GI50 (A549 NSCLC)?
A: 13.4 µM

Q: And the TGI (A549 NSCLC)?
A: > 25 µM

Q: And the GI50 (M14 melanoma)?
A: > 25 µM

Q: What about the TGI (M14 melanoma) of the same compound?
A: > 25 µM

Q: And the GI50 (NCI-H460 lung)?
A: 8.43 µM

Q: What about the TGI (NCI-H460 lung) of the same compound?
A: > 25 µM

Q: What about the GI50 (ACHN renal) of the same compound?
A: 4.66 µM

Q: What about the TGI (ACHN renal) of the same compound?
A: > 25 µM

Q: And the GI50 (SK-MEL-5 melanoma)?
A: 10.3 µM

Q: What about the TGI (SK-MEL-5 melanoma) of the same compound?
A: > 25 µM

Q: What about the GI50 (LOX IMVI melanoma) of the same compound?
A: 12.5 µM

Q: What about the TGI (LOX IMVI melanoma) of the same compound?
A: > 25 µM

Q: And the GI50 (SF-539 CNS)?
A: > 25 µM

Q: And the TGI (SF-539 CNS)?
A: > 25 µM

Q: What about the GI50 (CAKI-1 renal) of the same compound?
A: 9.06 µM

Q: What about the TGI (CAKI-1 renal) of the same compound?
A: > 25 µM

Q: What about the GI50 (OVCAR-8 ovarian) of the same compound?
A: > 20.2 µM

Q: What about the TGI (OVCAR-8 ovarian) of the same compound?
A: > 25 µM

Q: And the GI50 (HT29 colon)?
A: 10.1 µM

Q: And the TGI (HT29 colon)?
A: > 25 µM

Q: And the GI50 (NCI-H226 lung)?
A: 12.9 µM

Q: What about the TGI (NCI-H226 lung) of the same compound?
A: > 25 µM

Q: And the GI50 (MDA-MB-231 breast)?
A: 24.1 µM

Q: What about the TGI (MDA-MB-231 breast) of the same compound?
A: > 25 µM

Q: What about the GI50 (OVCAR-4 ovarian) of the same compound?
A: > 25 µM

Q: And the TGI (OVCAR-4 ovarian)?
A: > 25 µM

Q: What about the GI50 (SK-OV-3 ovarian) of the same compound?
A: 13.1 µM

Q: What about the TGI (SK-OV-3 ovarian) of the same compound?
A: > 25 µM

Q: What about the GI50 (SR leukemia) of the same compound?
A: 13.3 µM

Q: And the TGI (SR leukemia)?
A: > 25 µM

Q: What about the GI50 (KM12 colon) of the same compound?
A: 22.1 µM

Q: What about the TGI (KM12 colon) of the same compound?
A: > 25 µM

Q: And the GI50 (TK-10 renal)?
A: 10.3 µM

Q: What about the TGI (TK-10 renal) of the same compound?
A: > 25 µM

Q: What about the GI50 (HCT-116 colon) of the same compound?
A: 13.2 µM

Q: What about the TGI (HCT-116 colon) of the same compound?
A: > 25 µM

Q: What about the GI50 (RPMI-8226 leukemia) of the same compound?
A: > 17.1 µM

Q: And the TGI (RPMI-8226 leukemia)?
A: > 25 µM

Q: What about the GI50 (SK-MEL-28 melanoma) of the same compound?
A: > 25 µM

Q: What about the TGI (SK-MEL-28 melanoma) of the same compound?
A: > 25 µM

Q: What about the GI50 (U251 CNS) of the same compound?
A: > 18.5 µM

Q: And the TGI (U251 CNS)?
A: > 25 µM
